Data from ChEMBL document CHEMBL4184178, “Identification of potent lysophosphatidic acid receptor 5 (LPA5) antagonists as potential analgesic agents” (Bioorg Med Chem, 2018).
Activity calls are given as the source filed them. The rule behind the calls is not given here.

Columns and labels:
[1] = biological target: Lysophosphatidic acid receptor 5 (Rattus norvegicus, UniProt D4ADR1); experiment: Antagonist activity at rat LPA5 receptor expressed in CHO cells assessed as inhibition of LPA-induced cAMP accumulation after 30 mins by Lance Ultra assay; format: cell-based
[2] = Brain to plasma partition coefficient, Kp of the compound in rat at 60 mg/kg, ip measured after 0.5 hrs by LC-MS analysis; format: ADME, organism-based
[3] = Drug uptake in rat brain at 60 mg/kg, ip measured after 0.5 hrs by LC-MS analysis; format: ADME, organism-based; details: read-out: Drug uptake
Rattus norvegicus [4] = experiment: Analgesic effect in rat chronic constriction injury model assessed as reduction in mechanical allodynia at 10 mg/kg, ip by Von Frey test; format: functional, organism-based
[5] = Plasma concentration in rat at 60 mg/kg, ip measured after 0.5 hrs by LC-MS analysis; format: ADME, organism-based
Rattus norvegicus [6] = experiment: Analgesic effect in rat chronic constriction injury model assessed as reduction in mechanical allodynia at 60 mg/kg, ip by Von Frey test; format: functional, organism-based

Lysophosphatidic acid receptor 5, sequence (D4ADR1 whole entry): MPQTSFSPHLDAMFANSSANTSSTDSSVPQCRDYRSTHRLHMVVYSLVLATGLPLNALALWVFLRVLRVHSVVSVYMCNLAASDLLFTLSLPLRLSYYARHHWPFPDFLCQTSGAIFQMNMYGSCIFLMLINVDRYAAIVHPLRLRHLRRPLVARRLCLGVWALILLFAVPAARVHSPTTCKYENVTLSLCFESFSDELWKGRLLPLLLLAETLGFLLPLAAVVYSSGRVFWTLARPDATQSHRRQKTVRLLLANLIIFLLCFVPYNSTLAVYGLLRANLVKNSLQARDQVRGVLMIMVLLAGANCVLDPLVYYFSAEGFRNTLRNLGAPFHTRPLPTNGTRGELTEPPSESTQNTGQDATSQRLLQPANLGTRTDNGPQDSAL

Row | IC50 [1] | Structure (SMILES) | other results
1 | 1800 nM | CCOc1ccc(-n2cc(C(=O)N3CCCCCC3)c3cc(OC)c(OC)cc3c2=O)cc1 | 
2 | 720 nM | COc1cc2c(C(=O)N3CCCCCC3)cn(-c3ccc(C)c(C)c3)c(=O)c2cc1OC | 
3 | 110 nM | CCN1CCc2ccc(-n3cc(C(=O)N4CCCCCC4)c4cc(OC)c(OC)cc4c3=O)cc21 | 
4 | > 3000 nM | COc1cc2c(C(=O)N3CCCCCC3)cn(-c3ccc(F)cc3)c(=O)c2cc1OC | 
5 | 570 nM | CCc1ccc(-n2cc(C(=O)N3CCCCCC3)c3cc(OC)c(OC)cc3c2=O)cc1 | 
6 | 130 nM | COc1cc2c(C(=O)N3CCCCCC3)cn(-c3cccc(N(C)C)c3)c(=O)c2cc1OC | 

Continued, molecule first:

Row | Structure (SMILES) | IC50 [1] | other results
7 | CCCCCCN(C)C(=O)c1cn(-c2ccc(OCC)cc2)c(=O)c2cc(OC)c(OC)cc12 | > 10000 nM | 
8 | COc1cc2c(C(=O)N3CCCCCC3)cn(C(C)C)c(=O)c2cc1OC | > 30000 nM | 
9 | CCN1CCc2ccc(-n3cc(C(=O)N4CCC(F)CC4)c4cc(OC)c(OC)cc4c3=O)cc21 | 120 nM | Kp at 0.5 h [2]: 0.13; concentration at 0.5 h [3]: 1.22 µM; Activity (Rattus norvegicus [4]): inactive; concentration at 0.5 h [5]: 9.06 µM; Activity (Rattus norvegicus [6]): Active
10 | COc1cc2c(C(=O)N3CCCCCC3)cn(-c3ccc(C(N)=O)cc3)c(=O)c2cc1OC | > 30000 nM | 
11 | CCOc1ccc(-n2cc(C(=O)N3CCC(F)CC3)c3cc(OC)c(OC)cc3c2=O)cc1 | 750 nM | 
